Reference: US10221168B1, “Small-compound enhancers for functional O-mannosylation of alpha-dystroglycan, and uses thereof” (priority 2015, dated 2019)

What follows are compounds tested on FOG of α-DG on the cell surfaces (assay: Cell-based HTS/HCS assay, IIH6 antibody as probe (EC1.5)). Conditions: concentration of the compound required to enhance the FOG of α-DG by 50% over the controls; cell-based assays in vitro.
Description: Protein glycosylation is a multiple-step process that requires a large number of proteins in the secretory pathway of the cells. Thus we chose cell-based assay because our goal is to identify enhancer the FOG of α-DG on the cell surfaces. The assay system is HTS/HCS friendly and can adapt to various cell lines including myotubes as well as various readout methods including AlphaScreen, fluorescence density and HCS/fluorescence imaging. The standard operation protocol (SOP) for adhesion cells is described below and the FIG. 1 illustrates the assay process using myoblasts as the controls and screening cells and the IIH6 antibody as the probe. Other adhesion cells such CHO (Chinese hamster ovary) cell line can be implemented into this assay by simply removing the differentiation step.
Cell cultures: All cells are cultured at 37° C., 5% CO2, in appropriate media (F-12 for epithelial cells and DMEM for myoblasts) supplement with 10-20% fetal calf serum (FCS) and 1% antibiotics. […] The cells will be detached with trypsin EDTA and suspended in the cell culture media. The cells will be counted and seeded into the multiple-well plates as desired. Myotubes formation: When the myoblasts reach confluence, change the growth media to differential media (DEME with 2% horse serum) and incubate for 4-5 days.
The cells were fixed, permeablized, and then blocked with 10% BSA in PBS for 1 hour. […] After washing the cells with PBS for 2 times, the DAPI was used to stain the cells for 15 mins and wash 3 times with PBS. The images were captured with an inverted Olympus fluorescent microscope. For small compound localization experiment, the cells are incubated with the biotin conjugated compounds and then the cells were washed and incubated with streptavidin-Dye and then images will be captured to see the location of the compound-target-protein.
H, EC1.5<5 μM; M, EC1.5-20 μM; L, EC1.5 20-50 μM; VL, EC1.5>50 μM.

Row | Compound | Activity (EC1.5)
1 | CCC(c1nnnn1Cc1cccs1)N1CCN(c2nc3ccc(C(=O)O)cc3s2)CC1 (stereo not shown) [Compound 32, 2-(4-(1-(1-(thiophen-2-ylmethyl)-1H-tetrazol-5-yl)propyl)piperazin-1-yl)benzothiazole-6-carboxylic acid] | L (EC1.5 20-50 μM)
2 | O=C(c1nnnn1Cc1cccs1)N1CCN(c2nc3cccc(F)c3s2)CC1 [Compound 33, (4-(7-fluorobenzothiazol-2-yl)piperazin-1-yl)(1-(thiophen-2-ylmethyl)-1H-tetrazol-5-yl)methanone] | L (EC1.5 20-50 μM)
3 | CCC(c1nnnn1Cc1cccs1)N1CCN(c2nc3cccc(Br)c3s2)CC1 (stereo not shown) [Compound 34, 7-bromo-2-(4-(1-(1-(thiophen-2-ylmethyl)-1H-tetrazol-5-yl)propyl)piperazin-1-yl)benzothiazole] | L (EC1.5 20-50 μM)
4 | CCC(c1nnnn1Cc1cccs1)N1CCN(c2nc3cccc(C(=O)OC)c3s2)CC1 (stereo not shown) [Compound 35, Methyl 2-(4-(1-(1-(thiophen-2-ylmethyl)-1H-tetrazol-5-yl)propyl)piperazin-1-yl)benzothiazole-7-carboxylate] | L (EC1.5 20-50 μM)
5 | CCC(c1nnnn1Cc1cccs1)N1CCN(c2nc3cccc(C(=O)O)c3s2)CC1 (stereo not shown) [Compound 36, 2-(4-(1-(1-(thiophen-2-ylmethyl)-1H-tetrazol-5-yl)propyl)piperazin-1-yl)benzothiazole-7-carboxylic acid] | L (EC1.5 20-50 μM)
6 | CCC(c1nnnn1Cc1cccs1)N1CCN(c2nc3cccc(O)c3s2)CC1 (stereo not shown) [Compound 37, 7-hydroxyl-2-(4-(1-(1-(thiophen-2-ylmethyl)-1H-tetrazol-5-yl)propyl)piperazin-1-yl)benzothiazole] | L (EC1.5 20-50 μM)
7 | CCC(C(=O)NCc1cccs1)c1ccc(-c2nc3ccccc3s2)cc1 (stereo not shown) [Compound 38, 2-(4-(benzothiazol-2yl)phenyl)-N-(thiophen-2-ylmethyl)butanamide] | M (EC1.5-20 μM)
8 | CCC(C(=S)NCc1cccs1)c1ccc(-c2nc3ccccc3s2)cc1 (stereo not shown) [Compound 39, 2-(4-(benzothiazol-2-yl)phenyl)-N-(thiophen-2-ylmethyl)butanethioamide] | M (EC1.5-20 μM)
9 | CCC(c1ccc(-c2nc3ccccc3s2)cc1)c1nnnn1Cc1cccs1 (stereo not shown) [Compound 40, 2-(4-(1-(1-(thiophen-2-ylmethyl)-1H-tetrazol-5-yl)propyl)phenyl)benzothiazole] | M (EC1.5-20 μM)
10 | CCC(c1nnnn1CCc1cccs1)N1CCN(c2nc3cccc(F)c3s2)CC1 (stereo not shown) [Compound 41, 7-fluoro-2-(4-(1-(1-(2-(thiophen-2-yl)ethyl)-1H-tetrazol-5-yl)propyl)piperazin-1-yl)benzothiazole] | L (EC1.5 20-50 μM)
11 | CCC(c1nnnn1Cc1cncs1)N1CCN(c2nc3cccc(F)c3s2)CC1 (stereo not shown) [Compound 42, 7-fluoro-2-(4-(1-(1-(thiazol-5-ylmethyl)-1H-tetrazol-5-yl)propyl)piperazin-1-yl)benzothiazole] | L (EC1.5 20-50 μM)
12 | CCC(c1nnnn1Cc1cccs1)N1CCN(Cc2nc3ccccc3s2)CC1 (stereo not shown) [Compound 43, 2-((4-(1-(1-(thiophen-2-ylmethyl)-1H-tetrazol-5-yl)propyl)piperazin-1-yl)methyl)benzothiazole] | L (EC1.5 20-50 μM)
13 | CCC(c1nnnn1Cc1cccs1)N1CCN(c2nc3c(F)cc(F)cc3s2)CC1 (stereo not shown) [Compound 44, 4,6-difluoro-2-(4-(1-(1-(thiophen-2-ylmethyl)-1H-tetrazol-5-yl)propyl)piperazin-1-yl)benzothiazole] | M (EC1.5-20 μM)
14 | CCC(c1nnnn1Cc1cccs1)N1CCN(c2nc3cc([N+](=O)[O-])cc(F)c3s2)CC1 (stereo not shown) [Compound 45, 7-fluoro-5-nitro-2-(4-(1-(1-(thiophen-2-ylmethyl)-1H-tetrazol-5-yl)propyl)piperazin-1-yl)benzothiazole] | L (EC1.5 20-50 μM)
15 | CCC(c1nnnn1Cc1cccs1)N1CCN(c2nc3c(F)c(N)ccc3s2)CC1 (stereo not shown) [Compound 47, 5-amino-4-fluoro-2-(4-(1-(1-(thiophen-2-ylmethyl)-1H-tetrazol-5-yl)propyl)piperazin-1-yl)benzothiazole] | H (EC1.5<5 μM)
16 | CCC(c1nnnn1Cc1cccs1)N1CCN(c2nc3c(F)c(N)cc(F)c3s2)CC1 (stereo not shown) [Compound 48, 5-amino-4,7-difluoro-2-(4-(1-(1-(thiophen-2-ylmethyl)-1H-tetrazol-5-yl)propyl)piperazin-1-yl)benzothiazole] | H (EC1.5<5 μM)

Row | Compound | Activity (EC1.5)
17 | CCC(c1nnnn1Cc1cccs1)N1CCN(c2nc3ccc(N)c(F)c3s2)CC1 (stereo not shown) [Compound 49, 6-amino-7-fluoro-2-(4-(1-(1-(thiophen-2-ylmethyl)-1H-tetrazol-5-yl)propyl)piperazin-1-yl)benzothiazole] | H (EC1.5<5 μM)
18 | CCC(c1nnnn1Cc1cccs1)N1CCN(c2nc3c(F)cc(N)cc3s2)CC1 (stereo not shown) [Compound 50, 6-amino-4-fluoro-2-(4-(1-(1-(thiophen-2-ylmethyl)-1H-tetrazol-5-yl)propyl)piperazin-1-yl)benzothiazole] | H (EC1.5<5 μM)
19 | CCC(c1nnnn1Cc1cccs1)N1CCN(c2nc3c(F)cc(N)c(F)c3s2)CC1 (stereo not shown) [Compound 51, 6-amino-4,7-difluoro-2-(4-(1-(1-(thiophen-2-ylmethyl)-1H-tetrazol-5-yl)propyl)piperazin-1-yl)benzothiazole] | H (EC1.5<5 μM)
20 | CCC(c1nnnn1Cc1cccs1)N1CCN(c2nc3c(F)c(N)c(N)c(F)c3s2)CC1 (stereo not shown) [Compound 52, 5,6-diamino-4,7-difluoro-2-(4-(1-(1-(thiophen-2-ylmethyl)-1H-tetrazol-5-yl)propyl)piperazin-1-yl)benzothiazole] | H (EC1.5<5 μM)
21 | CCC(c1nnnn1CCc1cccs1)N1CCN(c2nc3cc(N)c(N)cc3s2)CC1 (stereo not shown) [Compound 53, 5,6-diamino-2-(4-(1-(1-(thiophen-2-ylethyl)-1H-tetrazol-5-yl)propyl)piperazin-1-yl)benzothiazole] | H (EC1.5<5 μM)
22 | CCC(c1nnnn1Cc1cccs1)N1CCN(c2nc3cc(N)c(N)cc3s2)CC1 (stereo not shown) [Compound 54, 5,6-diamino-2-(4-(1-(1-(thiophen-2-ylmethyl)-1H-tetrazol-5-yl)propyl)piperazin-1-yl)benzothiazole] | H (EC1.5<5 μM)
23 | CCC(c1nnnn1CCc1cccs1)N1CCN(c2nc3cc(N)cc(F)c3s2)CC1 (stereo not shown) [Compound 55, 5-amino-7-fluoro-2-(4-(1-(1-(thiophen-2-ylethyl)-1H-tetrazol-5-yl)propyl)piperazin-1-yl)benzothiazole] | H (EC1.5<5 μM)
24 | CCC(c1nnnn1Cc1ccc(C)s1)N1CCN(c2nc3cc(N)cc(F)c3s2)CC1 (stereo not shown) [Compound 56, 5-amino-7-fluoro-2-(4-(1-(1-(5-methyl-thiophen-2-ylmethyl)-1H-tetrazol-5-yl)propyl)piperazin-1-yl)benzothiazole] | H (EC1.5<5 μM)
25 | CCC(c1nnnn1Cc1ccc(F)s1)N1CCN(c2nc3cc(N)cc(F)c3s2)CC1 (stereo not shown) [Compound 57, 5-amino-7-fluoro-2-(4-(1-(1-(5-fluoro-thiophen-2-ylmethyl)-1H-tetrazol-5-yl)propyl)piperazin-1-yl)benzothiazole] | H (EC1.5<5 μM)
26 | CCC(c1nnnn1Cc1ccc([N+](=O)[O-])s1)N1CCN(c2nc3cc(N)cc(F)c3s2)CC1 (stereo not shown) [Compound 58, 5-amino-7-fluoro-2-(4-(1-(1-(5-nitro-thiophen-2-ylmethyl)-1H-tetrazol-5-yl)propyl)piperazin-1-yl)benzothiazole] | H (EC1.5<5 μM)
27 | CCC(c1nnnn1Cc1ccc(F)s1)N1CCN(c2nc3cc(N)cc(F)c3s2)C(C)C1 (stereo not shown) [Compound 59, 5-amino-7-fluoro-2-(4-(1-(1-(5-fluoro-thiophen-2-ylmethyl)-1H-tetrazol-5-yl)propyl)-2-methyl-piperazin-1-yl)benzothiazole] | H (EC1.5<5 μM)
28 | CCC(c1nnnn1CCc1ccc(F)s1)N1CCN(c2nc3cc(N)cc(F)c3s2)C(C)C1 (stereo not shown) [Compound 60, 5-amino-7-fluoro-2-(4-(1-(1-(5-fluoro-thiophen-2-ylethyl)-1H-tetrazol-5-yl)propyl)-2-methyl-piperazin-1-yl)benzothiazole] | H (EC1.5<5 μM)
29 | CCC(c1nnnn1CCc1cccs1)N1CCN(C2Sc3c(F)cc(N)cc3N2N)CC1 (stereo not shown) [Compound 61, 5-amino-7-fluoro-3-amino-2-(4-(1-(1-(thiophen-2-ylethyl)-1H-tetrazol-5-yl)propyl)piperazin-1-yl)benzothiazole] | H (EC1.5<5 μM)
30 | CCC(c1nnnn1CCc1cccs1)N1CCN(C2Sc3c(F)cc(N)cc3N2[N+](=O)[O-])CC1 (stereo not shown) [Compound 62, 5-amino-7-fluoro-3-nitro-2-(4-(1-(1-(thiophen-2-ylethyl)-1H-tetrazol-5-yl)propyl)piperazin-1-yl)benzothiazole] | H (EC1.5<5 μM)
31 | CCC(c1nnnn1CCc1cccs1)N1CCN(C2Sc3c(F)cc(N)cc3N2C)CC1 (stereo not shown) [Compound 63, 5-amino-7-fluoro-3-methyl-2-(4-(1-(1-(thiophen-2-ylethyl)-1H-tetrazol-5-yl)propyl)piperazin-1-yl)benzothiazole] | H (EC1.5<5 μM)
